Source: publication PMC10687169, “Insights into the recognition mechanism in the UBR box of UBR4 for its specific substrates” (Communications Biology, 2023)
Where a SMILES comes first, the peptide text is derived from it.

Biological target: T1, UBR4^UBR (UBR box of Human UBR4) (Homo sapiens, UniProt Q5T4S7)
T1 construct: UBR box residues 1660-1729 (Methods; Results b12 prints 1669-1729); N-terminal 10His-MBP tag kept for ITC, cut with TEV for crystals; E. coli BL21(DE3) RIL; three zinc ions; crystal 8J9R from YIFS-UBR4 (YIFS fused at N-terminus, LC3B tag removed by ATG4B)
T1 sequence (Q5T4S7 1660-1729): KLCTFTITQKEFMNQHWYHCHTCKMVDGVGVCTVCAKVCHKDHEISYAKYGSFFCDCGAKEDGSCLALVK
Experiment: ITC
Format: binding
Conditions: pH 7.5, 200 mM NaCl, 25 °C; 0.225 mM protein, 4.5 mM peptide; 10His-MBP-tagged protein

With `CC[C@H](C)[C@H](NC(=O)[C@@H](N)CCCNC(=N)N)C(=O)N[C@@H](Cc1ccccc1)C(=O)N[C@@H](CO)C(=O)O` [RIFS] (H-RIFS-OH) the Kd was 626 ± 29 µM.
